This passage reports remaining activity results from patent US5750362A, “Methods for identifying substances with a potential herbicidal or growth-regulating action by means of plant transporter proteins, the use of the transporter proteins, and substances with a herbicidal and growth-regulating action” (BASF Aktiengesellschaft, priority 1993, dated 1998).

Test [1] deals with T1, amino-acid transporter AAP2 (Arabidopsis thaliana, UniProt Q38967).
T1 construct: expressed in transfected cells; host or cells: Saccharomyces cerevisiae mutant 22574d (also printed 22457d)
T1 sequence (Q38967 1-493): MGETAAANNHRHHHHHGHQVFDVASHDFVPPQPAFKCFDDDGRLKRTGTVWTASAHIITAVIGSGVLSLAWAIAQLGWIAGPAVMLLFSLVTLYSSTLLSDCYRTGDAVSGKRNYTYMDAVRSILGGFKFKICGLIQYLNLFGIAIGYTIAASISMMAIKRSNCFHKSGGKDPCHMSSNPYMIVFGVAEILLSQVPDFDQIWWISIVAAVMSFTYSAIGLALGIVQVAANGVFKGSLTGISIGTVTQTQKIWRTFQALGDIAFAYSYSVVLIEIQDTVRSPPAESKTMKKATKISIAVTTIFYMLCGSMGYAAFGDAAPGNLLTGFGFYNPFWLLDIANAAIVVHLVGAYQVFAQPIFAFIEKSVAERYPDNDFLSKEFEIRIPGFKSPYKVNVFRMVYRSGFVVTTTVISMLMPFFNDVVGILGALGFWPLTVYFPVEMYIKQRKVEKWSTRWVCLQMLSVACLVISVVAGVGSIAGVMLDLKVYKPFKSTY
Briefly: Uptake of radiolabeled L-proline by yeast mutant 22457d-AAP2 expressing the plant amino-acid transporter. It is filed as cell-based. The following applies: L-[14C]-proline uptake, read-out: Activity relative to control [%]. On the procedure: Transporter investigations are carried out on the yeast mutant 22574d (Jauniaux & Grenson, Eur. J. Biochem. 190: 39-44, 1990), which harbors a mutation in the gene for amino-acid permease, and on the yeast mutant JT 16 (Tanaka and Fink, Gene 38: 205-214, 1985) which is incapable of histidine uptake, for identification of inhibitors of plant amino-acid transporters. These mutants are transformed with cDNA sequences which code for plant amino-acid transporters and lead to expression of functional transporters in the yeast cells. The cDNA sequences are cDNA sequences which code for the amino-acid transporters AAP1 and AAP2 from Arabidopsis thaliana (Frommer et al., 1993, Proc. Natl. Acad. Sci. USA 90: 5944-5948; Kwart et al., 1993, Plant J. 4:993-1002). For the measurements, cells of these mutants are cultured in minimal medium (NAAG+5 mmol/l proline) at 28° C. and harvested in the logarithmic phase (OD600 =0.6). The cells are spun down in a centrifuge at 4000 rpm and 4 degrees Celsius for 10 minutes and washed 2× with AUB buffer (modified AAB buffer, Ljungdahl et al.). The cell concentration is adjusted to an OD600 of 25 in AUB buffer.
100 μl portions of the cell suspension are mixed with 100 μl of a 1 mmol/l L-proline solution (18.5 kBq of L-[14C]-proline) and various concentrations of the appropriate substance to be investigated. After 20, 60, 120 and 180 seconds, a 50 μl aliquot is removed, diluted in 4 ml -of ice-cold AUB buffer and filtered through glass fever [sic] filter. In order to remove nonspecifically bound L-[14C]-proline, the cells are washed 2× with 4 ml of ice-cold water each time. The radioactivity retained on the glass filter is then measured in a liquid scintillation counter. The radioactivity reflects the amount of radiolabeled proline taken up by the cells. Uptake of radiolabeled proline without addition of a potential inhibitor is determined as one control. Cells of each of the mutants 22574d and JY 16 which have not been transformed with cDNA sequences coding for plant amino-acid transporters are used as further control. Results of measurements of this type on the mutants 22457d-AAP2 which expresses the amino-acid transporter AAP2 from Arabisopsis [sic] thaliana are shown in the following table.
For the investigations, yeast cells of the strain 22457d were transformed with a cDNA sequence which codes for the amino-acid transporter AAP2, and the uptake of radiolabeled proline in the presence of various substances was determined. The various substances tested, their concentration, and the activity of the transporter, shown as percentage activity of the control with which no potential inhibitors were added, are indicated.

Test [2] deals with T2, sucrose transporter P62 (StSUT1) (Solanum tuberosum, UniProt Q43653).
T2 construct: whole-cell [14C]-sucrose uptake; no tag or borders given
T2 sequence (Q43653 1-516): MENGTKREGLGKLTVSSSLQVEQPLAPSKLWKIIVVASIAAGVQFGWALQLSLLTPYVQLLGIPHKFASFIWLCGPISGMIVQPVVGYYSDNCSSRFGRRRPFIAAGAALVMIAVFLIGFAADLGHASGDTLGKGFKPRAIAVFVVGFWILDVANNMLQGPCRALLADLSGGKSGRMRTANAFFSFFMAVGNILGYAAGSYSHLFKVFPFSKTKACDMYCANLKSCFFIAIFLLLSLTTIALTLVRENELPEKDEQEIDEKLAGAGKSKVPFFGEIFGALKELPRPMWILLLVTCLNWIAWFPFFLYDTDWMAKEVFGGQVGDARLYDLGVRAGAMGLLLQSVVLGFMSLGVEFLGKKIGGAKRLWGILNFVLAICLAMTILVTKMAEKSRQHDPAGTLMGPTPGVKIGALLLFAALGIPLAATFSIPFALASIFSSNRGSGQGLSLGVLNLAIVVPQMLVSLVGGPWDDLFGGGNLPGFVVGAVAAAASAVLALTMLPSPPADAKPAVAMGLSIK
Briefly: [14C]-sucrose uptake by yeast strain SUSY-7-P62 (StSUT1) expressing the potato sucrose transporter. It is filed as cell-based. The settings on record: [14C]-sucrose uptake, pH 3.8, read-out: Activity relative to the control [%]. The procedure, abridged:
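SUSY7 yeast expressing potato StSUT1, log-phase cells at 50 g/l wet weight, glucose-energised, pH 3.8. Test substances added 30 s before 0.2 mmol/l [14C]-sucrose solution; uptake sampled 20–240 s by filtration and scintillation, expressed as percent of uninhibited control; untransformed SUSY7 as further control.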

With `N#CC(C#N)=NNc1cccc(Cl)c1` [CCCP], the remaining activity at 10 µM in test [1] (tested substance 10 μM) was 15.6 ± 2.1%; in test [2] (tested substance 10 μM), 9%.

In the case of `CCOC(=O)OC(=O)OCC` [DEPC, diethyl pyrocarbonate], the remaining activity at 1000 µM in test [1] (tested substance 1 mM) amounted to 3.1 ± 1.2%. Also, the remaining activity at 500 µM in test [2] (tested substance 0.5 mM) worked out at 6%.
